# Assay results from patent publication US20120132797A1, “MEANS AND METHODS FOR DIAGNOSING THYROID DISORDERS” (BASF SE, priority 2009, published 2012).
# Tested on: Wistar (Crl:WI(Han)) rats
# Experiment: Mass spectrometry-based plasma metabolite profiling of rats treated with known inducers of thyroid function impairment
# Assay type: in vivo, rat
# Details: ratio of group medians vs controls
# Description: At the beginning of the study the animals were 10-11 weeks old. Each dose group in the studies consisted of five rats per sex, and was compared with controls (10 rats per sex). […] The dose levels were chosen to show the typical overt (high dose) and slight (low dose) toxicological symptoms of the substances as described in the literature or in BASF internal study reports.
# Blood samples were withdrawn from the retro-orbital sinus in all rats under isoflurane anesthesia on study days 7, 14 and 28 after a fasting period of 16-20 hours.
# For mass spectrometry-based metabolite profiling analysis, plasma samples were extracted by a proprietary method which delivers a polar and a non-polar fraction. For GC-MS analysis, the non-polar fraction was treated with methanol under acidic conditions to yield the fatty acid methyl esters. Both fractions were further derivatised with Omethyl-hydroxyamine hydrochloride and pyridine to convert oxo groups to Omethyloximes and subsequently with a silylating agent before analysis.
# In LC-MS/MS analysis, both fractions were reconstituted in appropriate solvent mixtures. HPLC was performed by gradient elution on reversed phase separation columns. For mass spectrometric detection metanomics proprietary technology was applied, which allows target and high sensitivity MRM (Multiple Reaction Monitoring) profiling in parallel to a full screen analysis. […] Moreover, several hundred additional analytes giving a fingerprint of the sample were included in the methods.
# Following comprehensive analytical validation steps, the data for each analyte were normalized against data from pool samples. These samples were run in parallel through the whole process to account for process variability.
# The sex- and day-stratified heteroscedastic t-test (“Welch test”) was applied to compare treated groups with respective controls. p-Values and ratios of corresponding group medians were collected as metabolic profiles and fed into a database.
# [1] = female rats, fh7 (study day 7), Table 1
# [2] = female rats, fh14 (study day 14), Table 1
# [3] = female rats, fh28 (study day 28), Table 1
# [4] = male rats, mh7 (study day 7), Table 2
# [5] = male rats, mh7 (study day 7), Table 4
# [6] = male rats, mh14 (study day 14), Table 2
# [7] = male rats, mh14 (study day 14), Table 4
# [8] = male rats, mh28 (study day 28), Table 2
# [9] = male rats, mh28 (study day 28), Table 4
smiles,measurement,setting,value
Cn1cc[nH]c1=S [Methimazole],5-O-Methylsphingosine,[1],3.55
same,Asparagine,[1],1.17
same,Behenic acid (C22:0),[1],2.08
same,Citrate,[1],0.83
same,"Docosahexaenoic acid (C22:cis[4,7,10,13,16]6)",[1],2.16
same,Glycine,[1],1.14
same,Ketoleucine,[1],0.86
same,Lysophosphatidylcholine (C18:2),[1],1.52
same,"Phosphatidylcholine (C16:1, C18:2)",[1],1.89
same,"Phosphatidylcholine (C18:2, C20:4)",[1],1.39
same,Pyruvate,[1],0.62
same,Tricosanoic acid (C23:0),[1],2.05
same,erythro-Sphingosine,[1],2.56
same,threo-Sphingosine,[1],2.46
same,"Sphingomyelin (d18:1, C16:0)","female rats, fh7 (study day 7), Table 1, first listing",1.89
same,"Sphingomyelin (d18:1, C16:0)","female rats, fh7 (study day 7), Table 1, second listing",1.45
same,5-O-Methylsphingosine,[2],3.80
same,Asparagine,[2],1.12
same,Behenic acid (C22:0),[2],2.63
same,Citrate,[2],0.76
same,"Docosahexaenoic acid (C22:cis[4,7,10,13,16]6)",[2],1.32
same,Glycine,[2],1.14
same,Ketoleucine,[2],0.80
same,Lysophosphatidylcholine (C18:2),[2],1.57
same,"Phosphatidylcholine (C16:1, C18:2)",[2],2.40
same,"Phosphatidylcholine (C18:2, C20:4)",[2],1.25
same,Pyruvate,[2],0.53
same,Tricosanoic acid (C23:0),[2],2.54
same,erythro-Sphingosine,[2],3.21
same,threo-Sphingosine,[2],3.21
same,"Sphingomyelin (d18:1, C16:0)","female rats, fh14 (study day 14), Table 1, first listing",2.54
same,"Sphingomyelin (d18:1, C16:0)","female rats, fh14 (study day 14), Table 1, second listing",1.44
same,5-O-Methylsphingosine,[3],2.83
same,Asparagine,[3],1.12
same,Behenic acid (C22:0),[3],2.03
same,Citrate,[3],0.84
same,"Docosahexaenoic acid (C22:cis[4,7,10,13,16]6)",[3],1.22
same,Glycine,[3],1.28
same,Ketoleucine,[3],0.78
same,Lysophosphatidylcholine (C18:2),[3],1.31
same,"Phosphatidylcholine (C16:1, C18:2)",[3],2.21
same,"Phosphatidylcholine (C18:2, C20:4)",[3],1.33
same,Pyruvate,[3],0.79
same,Tricosanoic acid (C23:0),[3],1.96
same,erythro-Sphingosine,[3],2.44
same,threo-Sphingosine,[3],2.37
same,"Sphingomyelin (d18:1, C16:0)","female rats, fh28 (study day 28), Table 1, first listing",1.77
same,"Sphingomyelin (d18:1, C16:0)","female rats, fh28 (study day 28), Table 1, second listing",1.31
same,3-O-Methylsphingosine,[4],3.47
same,5-O-Methylsphingosine,[4],3.57
same,14-Methyl-Pentadecanoic acid,[4],1.13
same,17-Methyloctadecanoic acid,[4],1.36
same,Arginine,[4],1.09
same,Cholesterol,[4],1.98
same,Citrate,[4],0.69
same,"Dihom-gamma-Linolenic acid (C20:cis[8,11,14]3)",[4],2.38
same,Lignoceric acid (C24:0),[4],2.12
same,Phytosphingosine,[4],2.08
same,"Sphingomyelin (d18:1, C16:0)",[4],2.24
same,Tricosanoic acid (C23:0),[4],1.93
same,alpha-Tocopherol,[4],1.76
same,erythro-Sphingosine,[4],2.92
same,threo-Sphingosine,[4],3.02
same,Glutamate,"male rats, mh7 (study day 7), Table 2, first listing",0.61
same,Glutamate,"male rats, mh7 (study day 7), Table 2, second listing",0.75
same,Behenic acid (C22:0),[5],2.02
same,Cholesterol,[5],1.69
same,Citrate,[5],0.69
same,Cytosine,[5],0.65
same,"Galactose, lipid fraction",[5],1.60
same,Glycerol phosphate,[5],2.09
same,Glycine,[5],1.42
same,Lignoceric acid (C24:0),[5],2.12
same,Mannose,[5],1.06
same,Nervonic acid C24:(cis[15]1),[5],2.59
same,"Phospha-tidylcholine (C18:0, 18:2)",[5],1.11
same,"Sphingomyelin (d18:1, C16:0)",[5],2.24
same,Stearic acid (C18:0),[5],1.34
same,Threonic acid,[5],0.72
same,"dihomo-gamma-Linolenic acis (C20:cis[8,11,14]3)",[5],2.38
same,erythro-Sphingosine,[5],2.92
same,myo-Inositol-2-phosphate,[5],2.55
same,threo-Sphingosine,[5],3.02
same,3-O-Methylsphingosine,[6],3.85
same,5-O-Methylsphingosine,[6],4.15
same,14-Methyl-Pentadecanoic acid,[6],0.85
same,17-Methyloctadecanoic acid,[6],0.92
same,Arginine,[6],1.09
same,Cholesterol,[6],2.31
same,Citrate,[6],0.69
same,"Dihom-gamma-Linolenic acid (C20:cis[8,11,14]3)",[6],3.22
same,Lignoceric acid (C24:0),[6],2.82
same,Phytosphingosine,[6],2.92
same,"Sphingomyelin (d18:1, C16:0)",[6],2.27
same,Tricosanoic acid (C23:0),[6],2.69
same,alpha-Tocopherol,[6],2.66
same,erythro-Sphingosine,[6],3.71
same,threo-Sphingosine,[6],3.78
same,Glutamate,"male rats, mh14 (study day 14), Table 2, first listing",0.57
same,Glutamate,"male rats, mh14 (study day 14), Table 2, second listing",0.49
same,Behenic acid (C22:0),[7],3.03
same,Cholesterol,[7],1.93
same,Citrate,[7],0.69
same,Cytosine,[7],0.46
same,"Galactose, lipid fraction",[7],1.46
same,Glycerol phosphate,[7],1.67
same,Glycine,[7],1.25
same,Lignoceric acid (C24:0),[7],2.82
same,Mannose,[7],1.04
same,Nervonic acid C24:(cis[15]1),[7],3.00
same,"Phospha-tidylcholine (C18:0, 18:2)",[7],1.28
same,"Sphingomyelin (d18:1, C16:0)",[7],2.27
same,Stearic acid (C18:0),[7],1.40
same,Threonic acid,[7],0.69
same,"dihomo-gamma-Linolenic acis (C20:cis[8,11,14]3)",[7],3.22
same,erythro-Sphingosine,[7],3.71
same,myo-Inositol-2-phosphate,[7],2.35
same,threo-Sphingosine,[7],3.78
same,3-O-Methylsphingosine,[8],4.55
same,5-O-Methylsphingosine,[8],3.40
same,14-Methyl-Pentadecanoic acid,[8],0.54
same,17-Methyloctadecanoic acid,[8],0.45
same,Arginine,[8],1.14
same,Cholesterol,[8],2.03
same,Citrate,[8],0.73
same,"Dihom-gamma-Linolenic acid (C20:cis[8,11,14]3)",[8],2.02
same,Lignoceric acid (C24:0),[8],2.16
same,Phytosphingosine,[8],3.04
same,"Sphingomyelin (d18:1, C16:0)",[8],1.92
same,Tricosanoic acid (C23:0),[8],2.50
same,alpha-Tocopherol,[8],2.18
same,erythro-Sphingosine,[8],3.47
same,threo-Sphingosine,[8],4.30
same,Glutamate,"male rats, mh28 (study day 28), Table 2, first listing",0.46
same,Glutamate,"male rats, mh28 (study day 28), Table 2, second listing",0.40
same,Behenic acid (C22:0),[9],3.01
same,Cholesterol,[9],1.56
same,Citrate,[9],0.73
same,Cytosine,[9],0.39
same,"Galactose, lipid fraction",[9],1.53
same,Glycerol phosphate,[9],1.46
same,Glycine,[9],0.98
same,Lignoceric acid (C24:0),[9],2.16
same,Mannose,[9],0.87
same,Nervonic acid C24:(cis[15]1),[9],2.23
same,"Phospha-tidylcholine (C18:0, 18:2)",[9],1.35
same,"Sphingomyelin (d18:1, C16:0)",[9],1.92
same,Stearic acid (C18:0),[9],1.16
same,Threonic acid,[9],0.69
same,"dihomo-gamma-Linolenic acis (C20:cis[8,11,14]3)",[9],2.02
same,erythro-Sphingosine,[9],3.47
same,myo-Inositol-2-phosphate,[9],1.85
same,threo-Sphingosine,[9],4.30
